In brackets after ≈: the same amount, converted by molar mass. Where two headings read alike, the source gives them in different places.
What was measured:
[1] = Rat liver microsomal stability; type: in vitro ADME; conditions: for half-life: SD, rat, liver microsomes, read-out: Rat_SD/Microsomes t1/2 (m)
Description: (§1) The rat liver microsomal stability, parallel artificial membrane permeability assay (PAMPA), and aqueous kinetic solubility assay in phosphate-buffered saline (PBS) buffer were performed as described in the indicated references.

[2] = Aqueous kinetic solubility in PBS buffer; type: physicochemical
Description: as §1

[3] = Parallel artificial membrane permeability assay (PAMPA); type: in vitro ADME; conditions: for Papp: pH 7.4, PAMPA, pH7.4, read-out: Permeability(pH7.4) (PAMPA_Pion_Lipid 1e-6 cm/s)
Description: as §1

[4] = target: T1, Bovine Xanthine Oxidase (Bos taurus, UniProt P80457); assay: Xanthine oxidase / hypoxanthine luminol chemiluminescence assay; type: biochemical; conditions: xanthine oxidase with hypoxanthine; mean ± SD, n in cell; read-out: X/XO IC50
T1 construct: purchased Sigma
T1 sequence (P80457 whole entry): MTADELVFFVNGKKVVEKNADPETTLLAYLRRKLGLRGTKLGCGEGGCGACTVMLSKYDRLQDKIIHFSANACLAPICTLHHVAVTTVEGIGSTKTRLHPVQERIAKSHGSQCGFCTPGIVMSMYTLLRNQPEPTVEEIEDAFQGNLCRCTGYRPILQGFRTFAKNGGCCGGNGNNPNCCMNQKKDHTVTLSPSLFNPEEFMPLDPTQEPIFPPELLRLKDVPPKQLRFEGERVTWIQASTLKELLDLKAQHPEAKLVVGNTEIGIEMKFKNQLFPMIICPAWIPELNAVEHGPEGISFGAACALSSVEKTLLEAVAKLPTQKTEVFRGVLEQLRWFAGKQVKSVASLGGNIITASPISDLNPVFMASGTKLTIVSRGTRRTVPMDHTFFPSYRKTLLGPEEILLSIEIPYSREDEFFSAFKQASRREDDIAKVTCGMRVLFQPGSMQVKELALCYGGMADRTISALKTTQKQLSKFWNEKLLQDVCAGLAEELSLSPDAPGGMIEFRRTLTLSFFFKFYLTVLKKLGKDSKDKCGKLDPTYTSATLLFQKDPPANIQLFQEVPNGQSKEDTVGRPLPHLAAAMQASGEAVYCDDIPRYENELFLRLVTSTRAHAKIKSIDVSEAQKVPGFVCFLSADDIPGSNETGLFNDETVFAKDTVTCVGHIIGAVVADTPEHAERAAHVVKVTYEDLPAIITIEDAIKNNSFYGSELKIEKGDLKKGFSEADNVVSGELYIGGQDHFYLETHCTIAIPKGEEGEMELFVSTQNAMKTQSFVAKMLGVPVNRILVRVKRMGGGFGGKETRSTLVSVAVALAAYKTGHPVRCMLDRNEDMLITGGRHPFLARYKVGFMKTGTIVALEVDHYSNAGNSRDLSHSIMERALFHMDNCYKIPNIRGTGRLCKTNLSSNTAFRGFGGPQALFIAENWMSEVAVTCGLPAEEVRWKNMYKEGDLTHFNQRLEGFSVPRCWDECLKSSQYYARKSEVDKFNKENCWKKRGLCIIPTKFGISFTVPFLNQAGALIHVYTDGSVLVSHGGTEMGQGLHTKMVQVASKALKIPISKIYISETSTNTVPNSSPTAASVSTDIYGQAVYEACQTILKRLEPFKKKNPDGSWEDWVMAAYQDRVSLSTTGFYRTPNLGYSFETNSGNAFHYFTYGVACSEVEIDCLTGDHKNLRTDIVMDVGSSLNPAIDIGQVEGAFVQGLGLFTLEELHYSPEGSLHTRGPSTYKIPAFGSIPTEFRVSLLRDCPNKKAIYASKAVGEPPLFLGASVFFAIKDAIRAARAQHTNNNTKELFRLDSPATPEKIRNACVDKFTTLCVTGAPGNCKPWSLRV
Description: Bovine Xanthine Oxidase (Sigma) was dialyzed in PBS to remove ammonium sulfate and stored at 4 °C. Hypoxanthine was prepared by heating in DMSO. Reactions were prepared by diluting xanthine oxidase in HBSS (final concentration 1.25 mU/mL) that contained 50 μM luminol and were preincubated 5 min with control or inhibitor before the addition of hypoxanthine at a final concentration of 0.5 mM. Luminescence was measured at 24 °C as described above.

[5] = target: T2, NOX2 (Homo sapiens, UniProt P04839); assay: NOX2 activity in primary human granulocytes (PMN), luminol chemiluminescence; type: cell-based; set-up: When tested against NOX2 in primary human neutrophils; endogenous in cells; host or cells: primary human granulocytes (PMN) from donor blood; conditions: mean ± SD, n in cell; read-out: NOX-2 IC50 from PMN
T2 sequence (P04839 2-570 limits assumed): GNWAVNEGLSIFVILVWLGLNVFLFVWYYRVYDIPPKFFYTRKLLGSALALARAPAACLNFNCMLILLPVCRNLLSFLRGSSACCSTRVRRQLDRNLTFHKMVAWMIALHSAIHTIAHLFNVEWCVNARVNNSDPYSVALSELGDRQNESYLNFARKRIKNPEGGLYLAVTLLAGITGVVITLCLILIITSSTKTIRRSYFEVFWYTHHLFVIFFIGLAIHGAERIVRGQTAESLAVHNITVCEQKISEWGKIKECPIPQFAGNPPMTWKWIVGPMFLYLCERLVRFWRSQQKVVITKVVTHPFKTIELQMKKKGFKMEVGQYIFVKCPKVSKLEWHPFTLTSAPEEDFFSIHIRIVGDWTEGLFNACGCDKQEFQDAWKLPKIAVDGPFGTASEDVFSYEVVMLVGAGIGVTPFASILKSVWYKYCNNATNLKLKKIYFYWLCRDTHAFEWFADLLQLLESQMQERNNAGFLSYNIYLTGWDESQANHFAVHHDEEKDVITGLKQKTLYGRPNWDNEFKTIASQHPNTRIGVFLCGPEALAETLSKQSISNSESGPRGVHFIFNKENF
T2 sequence (P13498 2-195 partner limits assumed): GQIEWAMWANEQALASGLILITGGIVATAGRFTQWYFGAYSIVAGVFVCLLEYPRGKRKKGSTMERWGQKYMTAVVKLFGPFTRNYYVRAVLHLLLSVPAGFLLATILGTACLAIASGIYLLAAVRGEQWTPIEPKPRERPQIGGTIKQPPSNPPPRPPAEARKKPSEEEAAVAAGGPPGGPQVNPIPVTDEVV
Description: Human blood was obtained after informed consent by the Department of Transfusion Medicine (NIH Clinical Center) and provided as de-identified specimens. Human granulocytes were isolated using Percoll density fractionation as described and NOX2 activity was assessed in white polypropylene flat bottom 96 well plates following 15 min of preincubation at 37 °C with compounds or vehicle controls using 50 μM luminol as a chemiluminescence enhancer in an assay volume of 100 μl RPMI1640 with 1.1 × 10^5 cells/well in Varioskan Lux luminometer for 30 cycles of 1 s per well (approximately 1 h).

[6] = aqueous buffer, kinetic from dmso stock, read-out: Solubility

Row | SMILES | half-life [1] [min] | solubility [2, 6] [µg/mL] | Papp [3] [×10⁻⁶ cm/s] | IC50 [4] [nM] | IC50 [5] [nM] | Rat_SD/Microsomes t1/2 (m) [1] [m] | solubility [2] [µg/mL] | Permeability(pH7.4) (PAMPA_Pion_Lipid 1e-6 cm/s) [3]
1 | CC(C)n1cc(-c2ccc3c(c2)N(C)CC3)c2c(N[S+](=O)([O-])c3ccn(C)n3)ccnc21 [NCGC00507962, CC(C)[N]1C=C(C2=CC3=C(CCN3C)C=C2)C4=C(N[S+]([O-])(=O)C5=N[N](C)C=C5)C=CN=C14] | 1.1 | 36.7 (≈ 81.5 µM) | 1030 | – | – | – | – | –
2 | CC(n1cc(-c2ccc3ccn(C)c3c2)c2c(N[S+](=O)([O-])c3ccn(C)n3)ccnc21)C(F)(F)F (stereo not shown) [NCGC00600714, CC(N1C=C(C2=C(N[S+]([O-])(=O)C3=NN(C)C=C3)C=CN=C12)C4=CC5=C(C=CN5C)C=C4)C(F)(F)F] | 7.7 | < 1 | 479 | 4700 | 328 | – | – | –
3 | CC(n1cc(-c2ccc3c(c2)N(C)CC3)c2c(N[S+](=O)([O-])c3ccn(C)n3)ccnc21)C(F)(F)F (stereo not shown) [NCGC00600887, CC(N1C=C(C2=C(N[S+]([O-])(=O)C3=NN(C)C=C3)C=CN=C12)C4=CC5=C(CCN5C)C=C4)C(F)(F)F] | 3.3 | 21.9 (≈ 43.4 µM) | 629 | 872 | 541 | – | – | –
4 | CN1CCc2ccc(-c3cn(C4CC4)c4nccc(N[S+](=O)([O-])c5ccn(C)n5)c34)cc21 [NCGC00600897, CN1C=CC(=N1)[S+]([O-])(=O)NC2=C3C(=CN(C4CC4)C3=NC=C2)C5=CC6=C(CCN6C)C=C5] | 1.7 | > 66 | 171 | 1380 ± 1160 | – | – | – | –
5 | CN1CCc2ccc(-c3cn(CC(F)(F)F)c4nccc(N[S+](=O)([O-])c5ccn(C)n5)c34)cc21 [NCGC00600903, CN1C=CC(=N1)[S+]([O-])(=O)NC2=C3C(=CN(CC(F)(F)F)C3=NC=C2)C4=CC5=C(CCN5C)C=C4] | 3.3 | 12.2 (≈ 24.9 µM) | 53.6 | 56 ± 79 | 1680 ± 2070 | – | – | –
6 | Cn1ccc([S+](=O)([O-])Nc2ccnc3c2c(-c2ccc4c(c2)NCC4)cn3C2CC2)n1 [NCGC00601851, CN1C=CC(=N1)[S+]([O-])(=O)NC2=C3C(=CN(C4CC4)C3=NC=C2)C5=CC6=C(CCN6)C=C5] | 4.5 | > 64 | 191 | 7520 ± 10500 | 1530 ± 1360 | – | – | –
7 | O=C1N(C2CC2)c2cc(-c3cn(C4CC4)c4nccc(N[S+](=O)([O-])c5ccn(C6CC6)n5)c34)ccc2C12CC2 [NCGC00650041, [O-][S+](=O)(NC1=C2C(=CN(C3CC3)C2=NC=C1)C4=CC5=C(C=C4)C6(CC6)C(=O)N5C7CC7)C8=NN(C=C8)C9CC9] | 6.2 | 2 (≈ 3.7 µM) | 615 | 180 | – | – | – | –
8 | O=C1CCc2ccc(-c3cn(C4CC4)c4nccc(N[S+](=O)([O-])c5ccn(C6CC6)n5)c34)cc21 [NCGC00650069, [O-][S+](=O)(NC1=C2C(=CN(C3CC3)C2=NC=C1)C4=CC5=C(CCC5=O)C=C4)C6=NN(C=C6)C7CC7] | – | – | – | – | 1780 | 16 | 30 (≈ 63.4 µM) | 188.5 1e-6 cm/s
9 | O=C1CCc2ccc(-c3cn(C4CC4)c4nccc(N[S+](=O)([O-])c5ccn(C6CC6)n5)c34)cc21 [NCGC00650070, [O-][S+](=O)(NC1=C2C(=CN(C3CC3)C2=NC=C1)C4=CC5=C(CCC5=O)C=C4)C6=NN(C=C6)C7CC7] | 13.2 | 38.5 (≈ 81.3 µM) | 256 | – | 966 | – | – | –

Now from value to molecule, other results behind:

Row | half-life [1] [min] | solubility [2, 6] [µg/mL] | Papp [3] [×10⁻⁶ cm/s] | IC50 [4] [nM] | IC50 [5] [nM] | SMILES | Rat_SD/Microsomes t1/2 (m) [1] [m] | solubility [2] [µg/mL] | Permeability(pH7.4) (PAMPA_Pion_Lipid 1e-6 cm/s) [3]
10 | 5.7 | 26.2 (≈ 47.8 µM) | 1940 | 4430 | 2420 | Cn1ccc([S+](=O)([O-])Nc2ccnc3c2c(-c2ccc4c(c2)C(NC(=O)OC(C)(C)C)CC4)cn3C2CC2)n1 (stereo not shown) [NCGC00650021, CN1C=CC(=N1)[S+]([O-])(=O)NC2=C3C(=CN(C4CC4)C3=NC=C2)C5=CC6=C(CCC6NC(=O)OC(C)(C)C)C=C5] | – | – | –
11 | 14.5 | 24 (≈ 53.5 µM) | 13 | > 20000 | 447 | Cn1ccc([S+](=O)([O-])Nc2ccnc3c2c(-c2ccc4c(c2)C(N)CC4)cn3C2CC2)n1 (stereo not shown) [NCGC00650025, CN1C=CC(=N1)[S+]([O-])(=O)NC2=C3C(=CN(C4CC4)C3=NC=C2)C5=CC6=C(CCC6N)C=C5] | – | – | –
12 | 0.9 | 1 (≈ 2.31 µM) | 1420 | > 20000 | 3100 ± 2590 | Cn1ccc([S+](=O)([O-])Nc2ccnc3c2c(-c2ccc4c(c2)CCC4)cn3C2CC2)n1 [NCGC00650026, CN1C=CC(=N1)[S+]([O-])(=O)NC2=C3C(=CN(C4CC4)C3=NC=C2)C5=CC6=C(CCC6)C=C5] | – | – | –
13 | > 30 | 22.9 (≈ 44.5 µM) | 249 | 4210 ± 550 | 15200 | Cn1ccc([S+](=O)([O-])Nc2ccnc3c2c(-c2ccc4c(c2)N(C2CC2)C(=O)C42CC2)cn3C2CC2)n1 [NCGC00650040, CN1C=CC(=N1)[S+]([O-])(=O)NC2=C3C(=CN(C4CC4)C3=NC=C2)C5=CC6=C(C=C5)C7(CC7)C(=O)N6C8CC8] | – | – | –
14 | 1 | 2.2 (≈ 4.93 µM) | – | – | > 20000 | Cn1ccc([S+](=O)([O-])Nc2ccnc3c2c(-c2ccc4ccn(C)c4c2)cn3C2CC2)n1 [NCGC00650045, CN1C=CC(=N1)[S+]([O-])(=O)NC2=C3C(=CN(C4CC4)C3=NC=C2)C5=CC6=C(C=CN6C)C=C5] | – | – | –
15 | 17.9 | > 68 | 4 | 2290 ± 3230 | 1610 | CNC1CCc2ccc(-c3cn(C4CC4)c4nccc(N[S+](=O)([O-])c5ccn(C)n5)c34)cc21 (stereo not shown) [NCGC00650057, CNC1CCC2=C1C=C(C=C2)C3=CN(C4CC4)C5=NC=CC(N[S+]([O-])(=O)C6=NN(C)C=C6)=C35] | – | – | –
16 | 11.8 | > 66 | 72.8 | 2340 ± 2320 | 4250 | Cn1ccc([S+](=O)([O-])Nc2ccnc3c2c(-c2ccc4c(c2)C(=O)CC4)cn3C2CC2)n1 [NCGC00650061, CN1C=CC(=N1)[S+]([O-])(=O)NC2=C3C(=CN(C4CC4)C3=NC=C2)C5=CC6=C(CCC6=O)C=C5] | – | – | –
17 | – | – | – | 3110 | > 20000 | Cn1ccc([S+](=O)([O-])Nc2ccnc3c2c(-c2ccc4c(c2)C(=O)CC4)cn3C2CC2)n1 [NCGC00650062, CN1C=CC(=N1)[S+]([O-])(=O)NC2=C3C(=CN(C4CC4)C3=NC=C2)C5=CC6=C(CCC6=O)C=C5] | 17.3 | 38.6 (≈ 86.3 µM) | 88.1 1e-6 cm/s
18 | 1.1 | 1.4 (≈ 2.87 µM) | 1230 | 360 ± 510 | 3020 ± 2960 | Cn1ccc([S+](=O)([O-])Nc2ccnc3c2c(-c2ccc4c(c2)N(C2CC2)CC4)cn3CC2CC2)n1 [NCGC00650063, CN1C=CC(=N1)[S+]([O-])(=O)NC2=C3C(=CN(CC4CC4)C3=NC=C2)C5=CC6=C(CCN6C7CC7)C=C5] | – | – | –
19 | 6.9 | 35.9 (≈ 75.5 µM) | 386 | > 20000 | – | O=[S+]([O-])(Nc1ccnc2c1c(-c1ccc3c(c1)C(O)CC3)cn2C1CC1)c1ccn(C2CC2)n1 (stereo not shown) [NCGC00650064, OC1CCC2=C1C=C(C=C2)C3=CN(C4CC4)C5=NC=CC(N[S+]([O-])(=O)C6=NN(C=C6)C7CC7)=C35] | – | – | –
20 | – | 5.3 (≈ 9.99 µM) | 160 | 4070 ± 5430 | 2050 | Cn1ccc([S+](=O)([O-])Nc2ccnc3c2c(-c2ccc4c(c2)N(C2CC2)CC4)cn3CC2CCCCC2)n1 [NCGC00650102, CN1C=CC(=N1)[S+]([O-])(=O)NC2=C3C(=CN(CC4CCCCC4)C3=NC=C2)C5=CC6=C(CCN6C7CC7)C=C5] | – | – | –
21 | 4.6 | 8.2 (≈ 15.3 µM) | – | > 20000 | 3930 | Cn1ccc([S+](=O)([O-])Nc2ccnc3c2c(-c2ccc4c(c2)N(C(=O)OC(C)(C)C)CC4)cn3C2CC2)n1 [NCGC00650103, CN1C=CC(=N1)[S+]([O-])(=O)NC2=C3C(=CN(C4CC4)C3=NC=C2)C5=CC6=C(CCN6C(=O)OC(C)(C)C)C=C5] | – | – | –
